# US8088791B2, “Antibacterial agents” (Biots Scientific Management Pty Ltd, priority 2006, dated 2012)
# Where two headings read alike, the source gives them in different places.
# Columns and labels:
# Bacillus subtilis 168CA = experiment: Minimum Inhibitory Concentration (MIC) testing, broth microdilution, Bacillus subtilis; assay type: cell-based; conditions: Bacillus subtilis 168CA; read-out: Bacillus subtilis MICs Activity
# Procedure, shortened: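 Broth microdilution followed NCCLS M7-A5, in rich broth such as Mueller Hinton, inoculum at OD 0.09 diluted 1:100, compounds in 1.6% DMSO before inoculum. After 16–20 h at 37 °C, MIC was the lowest concentration without visible growth. Score A: ≦8 μg/ml, B: 16–64 μg/ml, C: >64 μg/ml.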
# [1] = tested on: Staphylococcus aureus ATCC29213; experiment: Minimum Inhibitory Concentration (MIC) testing, broth microdilution, Staphylococcus aureus; assay type: cell-based; conditions: Staphylococcus aureus ATCC29213; read-out: Staphylococcus aureus MICs Activity
# Procedure, shortened: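 Broth microdilution per NCCLS M7-A5 in Mueller Hinton broth, with compound in 1.6% DMSO and inoculum at OD 0.09 diluted 1:100. Plates incubated 16–20 h at 37°C. MIC is the lowest concentration with no visible growth; scored A ≤8, B 16–64, C >64 μg/ml.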
# [2] = tested on: various bacterial species; experiment: Minimum Inhibitory Concentration (MIC) testing, broth microdilution, other bacterial species; assay type: cell-based
# Procedure, shortened: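 Broth microdilution per NCCLS M7-A5 in rich broth (e.g. Mueller Hinton), inoculum from OD 0.09 suspension diluted 1:100 in 2× broth. Incubation 16-20 hours at 37° C; turbidity scored visually and spectrophotometrically. MIC is the lowest concentration inhibiting visible growth, binned A ≦8, B 16-64, C >64 micrograms/ml.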
# [3] = tested on: staphylococcal clinical isolates; experiment: Minimum Inhibitory Concentration (MIC) testing, broth microdilution, staphylococcal clinical isolates; assay type: cell-based; conditions: for MIC: read-out: MIC Activity against clinical isolate
# Procedure: Compounds of this invention were tested for antimicrobial activity by susceptibility testing in liquid media. MICs for compounds against each strain were determined by a broth microdilution method according to the National Committee for Clinical Laboratory Standards (NCCLS) guidelines. (NCCLS. 2000. Methods for dilution antimicrobial susceptibility tests for bacteria that grow aerobically—fifth edition. Approved standard M7-A5. NCCLS, Wayne, Pa.)
# Briefly, test compounds are prepared in 100 μl of 1.6% DMSO solution in multiwell plates. Several bacterial colonies from a freshly streaked plate are transferred to an appropriate rich broth, such as Mueller Hinton. The cell suspension is adjusted to an optical density of 0.09 and further diluted 1:100 with warm 2× broth. This cell suspension is dispensed into the wells containing compound solution so that the final volume is 200 μl. The plates are incubated overnight (16-20 hours) at 37° C. and turbidity is scored by eye and quantified spectrophotometrically. The MIC is defined as the lowest concentration inhibiting visible growth.
# Some of the Examples were also tested for activity against staphylococcal clinical isolates. […] Activities were again scored as ‘A’ if the MIC was ≦8 micrograms/ml, ‘B’ if the MIC was 16 to 64 micrograms/ml and ‘C’ if the MIC was greater than 64 micrograms/ml.
# Staphylococcus aureus = experiment: mouse Staphylococcus aureus septicaemia model of infection; assay type: in vivo; conditions: survival at day 7 of infected mice; single intraperitoneal dose of 100 mg/kg at 1 hour after intraperitoneal inoculation with a lethal dose of Staphylococcus aureus
# Procedure: Some of the Examples were also tested for activity in a mouse Staphylococcus aureus septicaemia model of infection.
compound,measurement,setting,value
"NC(=O)c1c(F)ccc(OCc2nc3cc(Cl)ccc3s2)c1F [Example 218, 3-[(5-Chloro-1,3-benzothiazol-2-yl)methoxy]-2,6-difluorobenzenecarboxamide]",MIC,Bacillus subtilis 168CA,< 8 µg/mL
same,MIC,[1],< 8 µg/mL
same,MIC,"[2]; Bacillus cereus, ATCC14579, read-out: MIC Activity Bacillus cereus ATCC 14579",< 8 µg/mL
same,MIC,"[2]; Staphylococcus epidermidis, ATCC12228, read-out: MIC Activity Staphylococcus epidermidis ATCC 12228",< 8 µg/mL
same,MIC,"[2]; Staphylococcus haemolyticus, ATCC29970, read-out: MIC Activity Staphylococcus haemolyticus ATCC 29970",< 8 µg/mL
same,MIC,"[2]; Staphylococcus saprophyticus, ATCC15305, read-out: MIC Activity Staphylococcus saprophyticus ATCC 15305",< 8 µg/mL
same,MIC Activity against clinical isolate,"[3]; S. aureus No. 753, Oxacillin S, Hospital",A (‘A’ if the MIC was ≦8 micrograms/ml)
same,MIC Activity against clinical isolate,"[3]; S. aureus No. 757, Oxacillin R, Tet-R, MI-R, Hospital (tetM)",A (‘A’ if the MIC was ≦8 micrograms/ml)
same,MIC Activity against clinical isolate,"[3]; S. aureus No. 1134, Oxacillin S, Hospital",A (‘A’ if the MIC was ≦8 micrograms/ml)
same,MIC Activity against clinical isolate,"[3]; S. aureus No. 1135, Oxacillin R, Van-S, LZD-S, Hospital",A (‘A’ if the MIC was ≦8 micrograms/ml)
same,MIC Activity against clinical isolate,"[3]; S. aureus No. 1651, Oxacillin R, Van-S, LZD-R, Hospital (G2576T, G)",A (‘A’ if the MIC was ≦8 micrograms/ml)
same,MIC Activity against clinical isolate,"[3]; S. aureus No. 1652, Oxacillin R, Van-S, LZD-R, Hospital (T2500T, A)",A (‘A’ if the MIC was ≦8 micrograms/ml)
same,MIC Activity against clinical isolate,"[3]; S. aureus No. 1662, Oxacillin S, Hospital",A (‘A’ if the MIC was ≦8 micrograms/ml)
same,MIC Activity against clinical isolate,"[3]; S. aureus No. 1725, Oxacillin R, Van-S, LZD-R, Hospital (G2576T)",A (‘A’ if the MIC was ≦8 micrograms/ml)
same,MIC Activity against clinical isolate,"[3]; S. aureus No. 1729, Oxacillin R, Tet-R, MI-R, Hospital",A (‘A’ if the MIC was ≦8 micrograms/ml)
same,MIC Activity against clinical isolate,"[3]; S. aureus No. 2011, Oxacillin R, Tet-R, MI-S, Hospital (tetK)",A (‘A’ if the MIC was ≦8 micrograms/ml)
same,MIC Activity against clinical isolate,"[3]; S. aureus No. 2012, Oxacillin R, Van-I, LZD-S, Hospital",A (‘A’ if the MIC was ≦8 micrograms/ml)
same,MIC Activity against clinical isolate,"[3]; S. aureus No. 2018, Oxacillin R, Van-I, LZD-S, Hospital",A (‘A’ if the MIC was ≦8 micrograms/ml)
same,MIC Activity against clinical isolate,"[3]; S. aureus No. 2142, Oxacillin R, CC-S, SXT-S, Community",A (‘A’ if the MIC was ≦8 micrograms/ml)
same,MIC Activity against clinical isolate,"[3]; S. aureus No. 2143, Oxacillin R, Rif-R, Community",A (‘A’ if the MIC was ≦8 micrograms/ml)
same,MIC Activity against clinical isolate,"[3]; S. aureus No. 2147, Oxacillin R, CC-S, SXT-S, Community",A (‘A’ if the MIC was ≦8 micrograms/ml)
same,MIC Activity against clinical isolate,"[3]; S. aureus No. 2149, Oxacillin R, CC-R (iMLS), SXT-S, Community",A (‘A’ if the MIC was ≦8 micrograms/ml)
same,MIC Activity against clinical isolate,"[3]; S. aureus No. 2150, Oxacillin R, CC-R, SXT-S, Community",A (‘A’ if the MIC was ≦8 micrograms/ml)
same,MIC Activity against clinical isolate,"[3]; S. aureus No. 2158, Oxacillin R, CC-R, Doxy-I, Community",A (‘A’ if the MIC was ≦8 micrograms/ml)
same,MIC Activity against clinical isolate,"[3]; S. aureus No. 2175, Oxacillin R, TMP-R, Community",A (‘A’ if the MIC was ≦8 micrograms/ml)
same,MIC Activity against clinical isolate,"[3]; S. epidermidis No. 831, Oxacillin R",A (‘A’ if the MIC was ≦8 micrograms/ml)
same,MIC Activity against clinical isolate,"[3]; S. epidermidis No. 1139, Oxacillin S",A (‘A’ if the MIC was ≦8 micrograms/ml)
same,MIC Activity against clinical isolate,"[3]; S. epidermidis No. 1142, Oxacillin R",A (‘A’ if the MIC was ≦8 micrograms/ml)
same,MIC Activity against clinical isolate,"[3]; S. epidermidis No. 1144, Oxacillin R",A (‘A’ if the MIC was ≦8 micrograms/ml)
same,MIC,"[3]; Staphylococcus aureus, ATCC29213, S. aureus No. 0100, Oxacillin S, ATCC 29213",< 8 µg/mL
same,MIC,"[3]; Staphylococcus aureus, S. aureus No. 1015, Oxacillin R, Van-S, LZD-S, Hospital",< 8 µg/mL
same,MIC,"[3]; Staphylococcus epidermidis, S. epidermidis No. 835, Oxacillin S",< 8 µg/mL
same,Percent survival,Staphylococcus aureus,100%
